Experimental data taken from the C3SDB collision cross section collection.

Conditions: instrument: TW, calibrated with polyalanine and drug standards

Compound | collision cross section (N2) ([M+H]+) [Å²] | other results
COc1cc2oc3cc(OC)c(OC)c(CC=C(C)C)c3c(=O)c2c(O)c1CC=C(C)C [1-HYDROXY-3,6,7-TRIMETHOXY-2,8-DIPRENYLXANTHONE] | 209.7 | 
COc1cc(O)c(C(=O)/C=C/c2ccc(O)c(OC)c2)c(OC)c1 [2',4-DIHYDROXY-3,4',6'-TRIMETHOXYCHALCONE] | 177.5 | 
O=c1[nH]c2cc(Cl)c(Cl)cc2[nH]c1=O [2,3-DIHYDROXY-6,7-DICHLOROQUINOXALINE] | 143 | 
COC1=CC(=O)C(C(=O)c2ccccc2)=CC1=O [2-BENZOYL-5-METHOXYBENZOQUINONE] | 145.4 | 
CCOc1cccc(C(=O)c2ccc(O)c(O)c2O)c1 [3,4-DIDESMETHYL-5-DESHYDROXY-3'-ETHOXYSCLEROIN] | 160.3 | 
O=c1c(O)c(-c2ccccc2)oc2cc(O)ccc12 [3,7-DIHYDROXYFLAVONE] | 152.1 | 
CC(=O)c1cc2ccccc2oc1=O [3-ACETYLCOUMARIN] | 131.6 | 
COc1ccc2c(c1)OC[C@@H](Cc1ccc(OC)c(OC)c1)[C@@H]2O [3-DESHYDROXYSAPPANOL TRIMETHYL ETHER] |  | collision cross section (N2) ([M+H-H2O]+): 172.3 Å²
COc1ccc(-c2oc3ccccc3c(=O)c2O)cc1OC [3-HYDROXY-3',4'-DIMETHOXYFLAVONE] | 164.1 | 
CC1(C)CC2C1CC[C@]1(C)CCC3C(C(=O)O)CC(=O)O[C@@]32C1 (stereo partly specified) [3-HYDROXY-4-(SUCCIN-2-YL)-CARYOLANE delta-LACTONE] | 174.9 | 
O=c1c(O)c(-c2ccccc2)oc2ccccc12 [3-HYDROXYFLAVONE] | 146.3 | 
CC(C)Cn1c(=O)n(C)c(=O)c2[nH]cnc21 [3-ISOBUTYL-1-METHYLXANTHINE (IBMX)] | 147.8 | 
Cc1cc(O)c(C)c(O)c1C(=O)O [3-METHYLORSELLINIC ACID] |  | collision cross section (N2) ([M+H-H2O]+): 127.5 Å²
Cn1c(=O)[nH]c(=O)c2[nH]cnc21 [3-METHYLXANTHINE] | 127.9 | 
C[C@]12CC[C@@H](O)C[C@H]1CCc1ccccc12 [3alpha-HYDROXY-4,4-BISNOR-8,11,13-PODOCARPATRIENE] | 140.4 | 
Cc1cc(=O)oc2c(O)c(O)ccc12 [4-METHYLDAPHNETIN] | 134.8 | 
COc1cc(O)c(C(C)=O)c(O)c1 [4-O-METHYLPHLORACETOPHENONE] | 130.5 | 
O=c1c(-c2ccccc2)coc2cc(O)cc(O)c12 [5,7-DIHYDROXYISOFLAVONE] | 152.3 | 
O=C(O)c1cc2cc(F)ccc2[nH]1 [5-FLUOROINDOLE-2-CARBOXYLIC ACID] | 145.3 | 
COc1ccc2oc(-c3ccccc3OC)cc(=O)c2c1 [6,2'-DIMETHOXYFLAVONE] | 161.4 | 
COc1cccc(-c2cc(=O)c3cc(OC)ccc3o2)c1 [6,3'-DIMETHOXYFLAVONE] | 162.1 | 
O=c1cc(-c2ccccc2O)oc2cc(O)ccc12 [7,2'-DIHYDROXYFLAVONE] | 152.4 | 
O=c1cc(-c2ccc(O)cc2)oc2cc(O)ccc12 [7,4'-DIHYDROXYFLAVONE] | 153.2 | 

Compound | collision cross section (N2) ([M+H]+) [Å²] | other results
O=c1cc(-c2ccccc2)oc2c(O)c(O)ccc12 [7,8-DIHYDROXYFLAVONE] | 152 | 
CC(=O)O[C@H]1C[C@@H](OC(C)=O)C(C)(C)C2CC(=O)[C@]3(C)C(CC[C@@]4(C)[C@H](c5ccoc5)OC(=O)[C@H]5O[C@]543)[C@]21C (stereo partly specified) [7-DEACETOXY-7-OXOKHIVORIN] | 217.7 | 
CC(C)CCC[C@@H](C)[C@H]1CC[C@H]2[C@@H]3C(=O)C=C4C[C@@H](O)CC[C@]4(C)[C@H]3CC[C@]12C [7-OXOCHOLESTEROL] | 208.3 | 
CC1(C)C(=O)[C@@H]2C[C@@]3(O)C4=CC(=O)O[C@@H](c5ccoc5)[C@]4(C)CCC3C(C)(C2=O)[C@H]1CC(=O)O (stereo partly specified) [8-HYDROXYCARAPINIC ACID] | 202.9 | 
Cc1ccc2c(c1)CC[C@H]1CC(=O)CC[C@]21C [13-METHYL-4,4-BISNOR-8,11,13-PODOCARPATRIEN-3-ONE] | 148.1 | 
COc1ccc(-c2cc(=O)c3c(O)cc(O)cc3o2)cc1 [ACACETIN] | 160.3 | 
COc1ccc2c(c1)c(CC(=O)OCC(=O)O)c(C)n2C(=O)c1ccc(Cl)cc1 [ACEMETACIN] | 191 | 
CC(=O)Nc1ccc(OC(=O)c2ccccc2O)cc1 [ACETAMINOSALOL] | 168.2 | 
CC(=O)Nc1cc([As](=O)(O)O)ccc1O [ACETARSOL] | 151.5 | 
CC(=O)Nc1nnc(S(N)(=O)=O)s1 [ACETAZOLAMIDE] | 140.7 | 
CC(=O)N[C@@H]1[C@@H](O)[C@H](O)[C@@H](CO)O[C@H]1O [ACETYLGLUCOSAMINE] |  | collision cross section (N2) ([M+Na]+): 153.5 Å²
CC(=O)NCCCCCC(=O)O [ACEXAMIC ACID] |  | collision cross section (N2) ([M+Na]+): 141.4 Å²
O=c1ccc2cc(O[C@@H]3O[C@H](CO)[C@@H](O)[C@H](O)[C@H]3O)c(O)cc2o1 [AESCULIN] | 174 | 
C=C1CC[C@H]2C(C)(C)CCC[C@]2(C)[C@H]1CC/C(C)=C/Cn1c[n+](C)c2ncnc(N)c21 [AGELASINE D] |  | collision cross section (N2) ([M]+): 212.2 Å²
CC[C@H]1[C@@H]2C[C@H]3[C@@H]4N(C)c5ccccc5[C@]45C[C@@H]([C@H]2[C@H]5O)N3[C@@H]1O [AJMALINE] | 172.9 | 
CCCSc1ccc2nc(NC(=O)OC)[nH]c2c1 [ALBENDAZOLE] | 162 | 
C=CCS(=O)C[C@H](N)C(=O)O (stereo partly specified) [ALLIIN] |  | collision cross section (N2) ([M+Na]+): 134.5 Å²
O=c1ncnc2[nH][nH]cc1-2 [ALLOPURINOL] | 123 | 
C=CCc1ccccc1OCC(O)CNC(C)C (stereo unspecified) [ALPRENOLOL] | 158.6 | 
CN(C)c1nc(N(C)C)nc(N(C)C)n1 [ALTRETAMINE] | 145.6 | 
CC(=O)OCC(=O)[C@@]12OC3(CCCC3)O[C@@H]1C[C@H]1[C@@H]3CCC4=CC(=O)C=C[C@]4(C)[C@@]3(F)[C@@H](O)C[C@@]12C [AMCINONIDE] | 214.9 | 
CN1C2CCC1CC(OC(c1ccccc1)c1ccccc1N)C2 (stereo unspecified) [AMINOBENZTROPINE] | 180.6 | 
CCC1(c2ccc(N)cc2)CCC(=O)NC1=O (stereo unspecified) [AMINOGLUTETHIMIDE] | 164.8 | 
